Experimental data: publication PMC6694155, “PTPσ inhibitors promote hematopoietic stem cell regeneration” (Nature Communications, 2019)
Values joined by “and” are separate entries in the source; they are usually repeats but may differ in a detail not shown here. Identical values can stand only once. “Also recorded” adds a separate entry of the source.

Legend:
[1] = biological target: T1, PTPσ (Mus musculus, UniProt B0V2N1); experiment: PTPσ enzymatic assay (modified Malachite Green / Tyrosine Phosphatase Assay Kit); assay type: biochemical; details: for PTPσ inhibitory activity (in words): direct PTPσ enzymatic assay; for Supplementary Figure 5b: PTPσ enzymatic assay signal: replicates
T1 sequence (B0V2N1 1326-1907): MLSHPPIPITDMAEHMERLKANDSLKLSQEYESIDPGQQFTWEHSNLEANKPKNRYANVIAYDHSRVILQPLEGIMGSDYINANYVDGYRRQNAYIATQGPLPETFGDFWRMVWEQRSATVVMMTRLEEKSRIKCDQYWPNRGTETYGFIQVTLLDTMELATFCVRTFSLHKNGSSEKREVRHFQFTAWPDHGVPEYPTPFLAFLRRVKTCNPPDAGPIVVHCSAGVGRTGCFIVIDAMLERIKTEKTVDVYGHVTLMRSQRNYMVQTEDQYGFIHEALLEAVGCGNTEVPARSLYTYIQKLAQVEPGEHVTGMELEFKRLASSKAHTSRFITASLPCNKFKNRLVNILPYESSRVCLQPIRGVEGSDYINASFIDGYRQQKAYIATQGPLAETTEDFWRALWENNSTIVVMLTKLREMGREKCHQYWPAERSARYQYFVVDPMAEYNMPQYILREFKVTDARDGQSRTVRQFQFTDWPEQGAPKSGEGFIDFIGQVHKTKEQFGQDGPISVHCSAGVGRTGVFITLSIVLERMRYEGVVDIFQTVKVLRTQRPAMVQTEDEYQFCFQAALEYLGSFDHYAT
Description: The two intracellular catalytic domains (D1 and D2) of Ptprs were cloned into a pET28a vector, overexpressed in Escherichia coli BL21 and purified. Enzymatic activity of PTPσ was assayed using a modified version of the Malachite Green Assay[66] and the Tyrosine Phosphatase Assay Kit (Promega Corporation). Unless stated otherwise, standard assays were carried out using 50 nM PTPσ protein in 1× Buffer (10 mM Tris, 5 mM MgCl2, 10 mM NaCl, 0.02% Tween) and Tyr Phosphopeptide as substrate (200 μM for Fig. 1b, c, 50–1200 μM in Fig. 1c). Purified catalytic domain 1 and domain 2 of PTPσ were pre-incubated with test compounds 3071, 5205, 5075, or control for 15 min in a 96-well plate before the addition of Tyr Phosphopeptide (DADE(pY)LIPQQG). For IC50 determination, rates normalized relative to uninhibited controls (dimethyl sulfoxide (DMSO)) were plotted against compound concentration and fitted using a four-parameter nonlinear regression curve fit ((y = [(A − D) (1 + {xC − 1}B) − 1] + D) (Prism 6.0, Graphpad Software). For mechanism studies and determination of the enyzme’s Km and Vmax, data were analyzed using a nonlinear regression fit according to the classical Michaelis–Menten kinetics model, Y = Vmax*X/(Km + X) (Prism 6.0, Graphpad Software).

[2] = test system: C57BL/6 mice; experiment: Survival study after 750 cGy TBI; assay type: in vivo, mouse
Description: For survival studies, 10-week-old female C57BL/6 mice were irradiated with 750 cGy TBI, which is lethal for ~50% of C57BL/6 mice by day + 30 (LD50/30), using a Shepherd Cesium-137 irradiator. Twenty four hours post irradiation, mice were administered daily subcutaneous injections of 5 mg/kg DJ001 or DJ009, or vehicle in a volume of 100 μL for 10 days. DJ001 or DJ009 injections were prepared in PBS, 0.5% Tween 80, and 10% DMSO. Corresponding vehicle injections contained PBS, 10% DMSO, and 0.5% Tween 80. PB complete blood counts were measured using a Hemavet 950 instrument (Drew Scientific) at day + 10 post irradiation. For hematopoietic analysis, BM cells were collected at day + 10 post irradiation. To study whether DJ001 increased survival rates through activation of RAC signaling, the RAC inhibitor, EHT1864 (Selleckchem), was dissolved in PBS and administered intraperitoneally, 40 mg/kg every other day, to 750 cGy-irradiated mice until day + 10.

[3] = 750 cGy TBI, DJ001 daily day +1 to +10, through day +40

O=C(/C=C\Nc1cccc([N+](=O)[O-])c1)c1ccccc1 [DJ001, (Z)-3-((3-nitrophenyl)amino)-1-phenylprop-2-en-1-one]
PTPσ inhibitory activity (in words) [1]: confirmed the inhibitory effect | PTPσ inhibitory activity (in words) ([1]; listed as 5483071): strong inhibitory activity | percent survival [2, 3]: 93% | survival, mice alive of total (Fig. 2f) [2, 3]: 27/29 and 27 of 29 | survival, mice alive of total (Fig. 3f) ([2]; 750 cGy, 10-day treatment, EHT1864 40 mg/kg i.p. every other day): 11/15 | Figure 3f: survival event per mouse (1 = event, 0 = censored) ([2]; Days Post-irradiation 14): 1 | Figure 3f: survival event per mouse (1 = event, 0 = censored) ([2]; Days Post-irradiation 17): 1 | Figure 3f: survival event per mouse (1 = event, 0 = censored) ([2]; Days Post-irradiation 18): 1 | survival source data, event code per mouse ([2]; Days Post-irradiation 18): 1 | Figure 3f: survival event per mouse (1 = event, 0 = censored) ([2]; Days Post-irradiation 20): 1 | Figure 3f: survival event per mouse (1 = event, 0 = censored) ([2]; Days Post-irradiation 30): 0 | survival source data, event code per mouse ([2]; Days Post-irradiation 40): 0

O=C(/C=C\Nc1cc(F)cc(F)c1)c1ccccc1 [DJ009, (Z)-3-((3,5-difluorophenyl)amino)-1-phenylprop-2-en-1-one]
PTPσ inhibitory activity (in words) [1]: strongly inhibited PTPσ activity; also recorded: strong PTPσ inhibitory | Supplementary Figure 5b: PTPσ enzymatic assay signal ([1]; inhibitor 0.0122 uM): 0.21 and 0.203 (2×) | Supplementary Figure 5b: PTPσ enzymatic assay signal ([1]; inhibitor 0.049 uM): 0.201 and 0.209 and 0.211 | Supplementary Figure 5b: PTPσ enzymatic assay signal ([1]; inhibitor 0.09 uM): 0.199 and 0.194 and 0.195 | Supplementary Figure 5b: PTPσ enzymatic assay signal ([1]; inhibitor 0.19 uM): 0.178 and 0.174 and 0.176 | Supplementary Figure 5b: PTPσ enzymatic assay signal ([1]; inhibitor 0.39 uM): 0.161 and 0.165 and 0.164 | Supplementary Figure 5b: PTPσ enzymatic assay signal ([1]; inhibitor 0.78 uM): 0.162 and 0.166 and 0.165 | Supplementary Figure 5b: PTPσ enzymatic assay signal ([1]; inhibitor 1.56 uM): 0.16 and 0.163 and 0.158 | Supplementary Figure 5b: PTPσ enzymatic assay signal ([1]; inhibitor 3.125 uM): 0.154 and 0.159 and 0.16 | Supplementary Figure 5b: PTPσ enzymatic assay signal ([1]; inhibitor 6.25 uM): 0.157 and 0.162 and 0.156 | survival of irradiated C57BL/6 mice (in words) ([2]; 750 cGy TBI, 5 mg/kg daily for 10 days): significantly increased survival | survival, mice alive of total (Supplementary Fig. 5f) ([2]; 750 cGy, 5 mg/kg DJ009 daily for 10 d): 24/24 | Supplementary Figure 5f: survival event per mouse (1 = event, 0 = censored) ([2]; Days post-radiation 30): 0
